Test results taken from US10844077B2, “Thiazolyl-containing compounds for treating proliferative diseases” (Dana-Farber Cancer Institute, Inc., priority 2014, dated 2020).
Read-outs that look alike come from different tables or passages of the source.

Key:
Assay type in all cases: cell-based
[1] = target: T1, kinases in BCWM.1 cells (Homo sapiens, UniProt Q9UBE8); conditions: NLK; Lys2; 1 μM, 90 min; GF
Procedure: (§1) The cells were harvested and lysed. […] Bound kinases were identified and quantitated by ACTIVX as described in Patricelli et al., Biochemistry, 2007, 46(2): 350-358. The compounds were tested in duplicates against duplicate or quadruplicate control samples.

[2] = target: kinases in BCWM.1 cells (Homo sapiens, UniProt Q9NRH2); conditions: SNRK; Lys2; 1 μM, 90 min; GF
Procedure: as §1

[3] = target: T2, kinases in BCWM.1 cells (Homo sapiens, UniProt Q15208); conditions: NDR1; Lys2; 1 μM, 90 min; GF
T2 sequence (Q15208 2-465 limits assumed): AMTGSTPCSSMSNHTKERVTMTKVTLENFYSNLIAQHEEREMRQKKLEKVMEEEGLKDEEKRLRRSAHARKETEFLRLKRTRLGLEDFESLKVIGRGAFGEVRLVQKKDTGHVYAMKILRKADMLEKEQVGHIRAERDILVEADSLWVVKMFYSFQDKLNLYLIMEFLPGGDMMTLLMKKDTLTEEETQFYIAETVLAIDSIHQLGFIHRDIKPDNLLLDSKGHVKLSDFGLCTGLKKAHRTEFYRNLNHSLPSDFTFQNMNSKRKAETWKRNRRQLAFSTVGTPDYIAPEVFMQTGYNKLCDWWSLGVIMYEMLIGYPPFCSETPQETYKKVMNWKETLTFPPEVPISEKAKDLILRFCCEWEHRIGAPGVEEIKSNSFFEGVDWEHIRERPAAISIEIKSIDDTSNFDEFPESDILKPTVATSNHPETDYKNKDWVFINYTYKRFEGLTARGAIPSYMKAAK
Procedure: as §1

[4] = test system: kinases in BCWM.1 cells; conditions: 1 μM, 90 min, GF
Procedure: as §1

[5] = target: kinases in BCWM.1 cells (Homo sapiens, UniProt Q9Y2I7); conditions: PIP5K3; ATP; 1 μM, 90 min; GF
Sequence of kinases in BCWM.1 cells (Homo sapiens, UniProt Q9Y2I7) (Q9Y2I7 2-2098 limits assumed): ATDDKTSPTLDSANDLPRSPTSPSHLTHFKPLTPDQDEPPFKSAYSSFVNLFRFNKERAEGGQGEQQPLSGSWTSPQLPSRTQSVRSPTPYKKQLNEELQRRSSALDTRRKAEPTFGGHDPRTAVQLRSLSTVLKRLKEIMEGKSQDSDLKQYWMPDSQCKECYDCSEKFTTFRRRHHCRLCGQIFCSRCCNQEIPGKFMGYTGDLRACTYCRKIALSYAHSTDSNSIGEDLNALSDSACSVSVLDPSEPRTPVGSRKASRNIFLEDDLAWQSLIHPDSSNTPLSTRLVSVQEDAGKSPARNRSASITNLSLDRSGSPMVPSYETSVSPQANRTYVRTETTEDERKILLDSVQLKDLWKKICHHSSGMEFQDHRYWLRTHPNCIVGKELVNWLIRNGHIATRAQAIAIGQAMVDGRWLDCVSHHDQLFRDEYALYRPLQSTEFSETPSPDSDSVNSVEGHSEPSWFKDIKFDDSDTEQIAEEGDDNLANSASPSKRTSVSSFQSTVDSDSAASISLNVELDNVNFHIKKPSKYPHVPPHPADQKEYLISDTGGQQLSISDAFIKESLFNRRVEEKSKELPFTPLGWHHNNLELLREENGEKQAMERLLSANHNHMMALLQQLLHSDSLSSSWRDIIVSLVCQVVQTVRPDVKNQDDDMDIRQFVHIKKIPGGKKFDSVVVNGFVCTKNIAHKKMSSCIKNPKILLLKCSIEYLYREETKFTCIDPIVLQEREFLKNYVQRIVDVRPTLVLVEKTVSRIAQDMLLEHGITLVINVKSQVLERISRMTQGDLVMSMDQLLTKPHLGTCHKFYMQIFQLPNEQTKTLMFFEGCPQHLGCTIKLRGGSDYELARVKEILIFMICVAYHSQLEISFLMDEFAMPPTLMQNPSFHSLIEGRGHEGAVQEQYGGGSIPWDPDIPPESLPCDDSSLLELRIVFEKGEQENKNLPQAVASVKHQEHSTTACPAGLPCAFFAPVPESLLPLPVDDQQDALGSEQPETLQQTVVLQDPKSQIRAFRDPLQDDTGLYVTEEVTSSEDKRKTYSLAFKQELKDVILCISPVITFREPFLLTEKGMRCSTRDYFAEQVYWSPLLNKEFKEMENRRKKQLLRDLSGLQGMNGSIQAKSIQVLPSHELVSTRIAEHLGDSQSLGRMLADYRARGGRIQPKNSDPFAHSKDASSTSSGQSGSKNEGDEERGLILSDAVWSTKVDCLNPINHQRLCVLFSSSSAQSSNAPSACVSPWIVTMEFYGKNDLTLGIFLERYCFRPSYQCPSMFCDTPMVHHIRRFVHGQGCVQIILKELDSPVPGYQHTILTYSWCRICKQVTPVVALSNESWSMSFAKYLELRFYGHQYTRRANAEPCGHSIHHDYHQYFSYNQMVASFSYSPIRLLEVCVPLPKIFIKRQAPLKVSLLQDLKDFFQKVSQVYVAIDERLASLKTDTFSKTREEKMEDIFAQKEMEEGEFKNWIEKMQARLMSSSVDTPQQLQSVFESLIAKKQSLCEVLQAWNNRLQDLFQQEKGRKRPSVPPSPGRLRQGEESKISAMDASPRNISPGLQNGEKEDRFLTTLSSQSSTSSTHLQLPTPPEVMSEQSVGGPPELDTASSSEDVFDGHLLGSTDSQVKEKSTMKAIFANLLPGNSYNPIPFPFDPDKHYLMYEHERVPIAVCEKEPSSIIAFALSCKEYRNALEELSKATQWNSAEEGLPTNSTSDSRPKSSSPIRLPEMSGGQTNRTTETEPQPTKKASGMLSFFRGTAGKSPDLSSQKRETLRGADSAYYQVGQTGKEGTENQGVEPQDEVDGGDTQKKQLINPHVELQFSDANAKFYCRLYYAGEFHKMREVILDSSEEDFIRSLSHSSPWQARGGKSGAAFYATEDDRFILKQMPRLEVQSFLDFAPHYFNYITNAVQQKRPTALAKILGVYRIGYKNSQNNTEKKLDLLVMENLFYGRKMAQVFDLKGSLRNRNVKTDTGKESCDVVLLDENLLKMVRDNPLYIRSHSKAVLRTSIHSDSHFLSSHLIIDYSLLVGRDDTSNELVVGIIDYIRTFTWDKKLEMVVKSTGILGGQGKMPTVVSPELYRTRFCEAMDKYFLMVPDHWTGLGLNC
Procedure: as §1

[6] = target: T3, kinases in BCWM.1 cells (Homo sapiens, UniProt Q9NYL2); conditions: ZAK; Lys1; 1 μM, 90 min; GF
T3 sequence (Q9NYL2 2-800 limits assumed): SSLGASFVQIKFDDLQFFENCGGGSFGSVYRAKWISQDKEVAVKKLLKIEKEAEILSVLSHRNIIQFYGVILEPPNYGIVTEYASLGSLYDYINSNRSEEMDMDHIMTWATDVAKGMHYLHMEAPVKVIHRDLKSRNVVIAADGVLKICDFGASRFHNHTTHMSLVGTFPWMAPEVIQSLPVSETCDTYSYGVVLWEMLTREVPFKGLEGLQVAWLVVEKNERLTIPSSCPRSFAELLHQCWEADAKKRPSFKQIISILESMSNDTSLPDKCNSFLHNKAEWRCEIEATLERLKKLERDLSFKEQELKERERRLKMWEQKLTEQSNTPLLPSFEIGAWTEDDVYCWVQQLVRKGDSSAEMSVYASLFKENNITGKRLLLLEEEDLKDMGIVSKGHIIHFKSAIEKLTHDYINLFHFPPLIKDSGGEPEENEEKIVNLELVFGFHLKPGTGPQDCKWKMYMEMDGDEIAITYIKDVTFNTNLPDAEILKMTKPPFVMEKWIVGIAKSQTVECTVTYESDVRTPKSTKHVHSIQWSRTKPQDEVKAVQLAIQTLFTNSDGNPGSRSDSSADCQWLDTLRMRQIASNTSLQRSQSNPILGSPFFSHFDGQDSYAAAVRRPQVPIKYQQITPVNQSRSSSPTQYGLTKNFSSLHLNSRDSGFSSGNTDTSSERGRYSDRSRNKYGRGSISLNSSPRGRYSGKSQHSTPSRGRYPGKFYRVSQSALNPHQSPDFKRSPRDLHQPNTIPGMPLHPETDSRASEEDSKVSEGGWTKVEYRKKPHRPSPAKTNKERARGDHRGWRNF
Procedure: as §1

[7] = target: kinases in BCWM.1 cells (Homo sapiens, UniProt Q9BYT3); conditions: STK33; Lys2; 1 μM, 90 min; GF
Procedure: as §1

[8] = target: T1, kinases in BCWM.1 cells; test: KINATIV assay of compounds I-3 and I-9, lysate directly labeled with ATP-biotin probe (no GF); conditions: NLK; Lys2; 1 μM, 90 min; no GF
Procedure: as §1

[9] = target: kinases in BCWM.1 cells (Homo sapiens, UniProt Q8TBX8); test: as above; conditions: PIP4K2C; ATP; 1 μM, 90 min; no GF
Sequence of kinases in BCWM.1 cells (Homo sapiens, UniProt Q8TBX8) (Q8TBX8 2-421 limits assumed): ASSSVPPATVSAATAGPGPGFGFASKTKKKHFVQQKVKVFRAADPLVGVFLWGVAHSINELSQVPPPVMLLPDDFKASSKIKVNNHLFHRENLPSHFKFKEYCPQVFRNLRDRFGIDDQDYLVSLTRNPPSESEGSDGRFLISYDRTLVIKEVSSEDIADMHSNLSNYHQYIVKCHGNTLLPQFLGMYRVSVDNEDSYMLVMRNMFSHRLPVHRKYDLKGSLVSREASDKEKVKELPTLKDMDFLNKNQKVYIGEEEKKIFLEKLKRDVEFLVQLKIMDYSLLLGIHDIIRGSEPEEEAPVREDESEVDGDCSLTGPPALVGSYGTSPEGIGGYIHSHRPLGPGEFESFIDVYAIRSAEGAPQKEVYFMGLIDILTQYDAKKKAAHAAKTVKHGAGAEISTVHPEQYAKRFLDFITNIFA
Procedure: as §1

[10] = target: kinases in BCWM.1 cells (Homo sapiens, UniProt O00329); test: as above; conditions: PIK3CD; ATP; 1 μM, 90 min; no GF
Procedure: as §1

[11] = target: kinases in BCWM.1 cells (Homo sapiens, UniProt P29597); test: as above; conditions: TYK2 domain2; Activation Loop; 1 μM, 90 min; no GF
Procedure: as §1

[12] = target: kinases in BCWM.1 cells (Homo sapiens, UniProt P30291); test: as above; conditions: Wee1; Lys2; 1 μM, 90 min; no GF
Procedure: as §1

[13] = target: T2, kinases in BCWM.1 cells; test: as above; conditions: NDR1; Lys2; 1 μM, 90 min; no GF
Procedure: as §1

[14] = target: kinases in BCWM.1 cells (Homo sapiens, UniProt Q15349); test: as above; conditions: RSK3 domain1; Lys2; 1 μM, 90 min; no GF
Procedure: as §1

[15] = target: kinases in BCWM.1 cells (Homo sapiens, UniProt Q96BR1); test: as above; conditions: SGK3; Lys1; 1 μM, 90 min; no GF
Procedure: as §1

[16] = target: kinases in BCWM.1 cells (Homo sapiens, UniProt Q13523); test: as above; conditions: PRP4; Lys2; 1 μM, 90 min; no GF
Procedure: as §1

[17] = target: kinases in BCWM.1 cells (Homo sapiens, UniProt Q14289); test: as above; conditions: PYK2; Activation Loop; 1 μM, 90 min; no GF
Procedure: as §1

[18] = target: kinases in BCWM.1 cells (Homo sapiens, UniProt P04049); test: as above; conditions: RAF1; Lys2; 1 μM, 90 min; no GF
Procedure: as §1

[19] = target: T3, kinases in BCWM.1 cells; test: as above; conditions: ZAK; Lys1; 1 μM, 90 min; no GF
Procedure: as §1

[20] = target: kinases in BCWM.1 cells (Homo sapiens, UniProt Q9UKI8); test: as above; conditions: TLK1; Lys2; 1 μM, 90 min; no GF
Procedure: as §1

[21] = target: kinases in BCWM.1 cells (Homo sapiens, UniProt Q9BZL6); test: as above; conditions: PKD2; Lys1; 1 μM, 90 min; no GF
Procedure: as §1

[22] = target: kinases in BCWM.1 cells (Homo sapiens, UniProt P51957); test: as above; conditions: NEK4; Lys2; 1 μM, 90 min; no GF
Procedure: as §1

[23] = target: kinases in BCWM.1 cells (Homo sapiens, UniProt P43405); test: as above; conditions: SYK; Activation Loop; 1 μM, 90 min; no GF
Procedure: as §1

[24] = target: kinases in BCWM.1 cells (Homo sapiens, UniProt O95819); test: as above; conditions: ZC1/HGK; Lys1; 1 μM, 90 min; no GF
Sequence of kinases in BCWM.1 cells (Homo sapiens, UniProt O95819) (O95819 2-1239 limits assumed): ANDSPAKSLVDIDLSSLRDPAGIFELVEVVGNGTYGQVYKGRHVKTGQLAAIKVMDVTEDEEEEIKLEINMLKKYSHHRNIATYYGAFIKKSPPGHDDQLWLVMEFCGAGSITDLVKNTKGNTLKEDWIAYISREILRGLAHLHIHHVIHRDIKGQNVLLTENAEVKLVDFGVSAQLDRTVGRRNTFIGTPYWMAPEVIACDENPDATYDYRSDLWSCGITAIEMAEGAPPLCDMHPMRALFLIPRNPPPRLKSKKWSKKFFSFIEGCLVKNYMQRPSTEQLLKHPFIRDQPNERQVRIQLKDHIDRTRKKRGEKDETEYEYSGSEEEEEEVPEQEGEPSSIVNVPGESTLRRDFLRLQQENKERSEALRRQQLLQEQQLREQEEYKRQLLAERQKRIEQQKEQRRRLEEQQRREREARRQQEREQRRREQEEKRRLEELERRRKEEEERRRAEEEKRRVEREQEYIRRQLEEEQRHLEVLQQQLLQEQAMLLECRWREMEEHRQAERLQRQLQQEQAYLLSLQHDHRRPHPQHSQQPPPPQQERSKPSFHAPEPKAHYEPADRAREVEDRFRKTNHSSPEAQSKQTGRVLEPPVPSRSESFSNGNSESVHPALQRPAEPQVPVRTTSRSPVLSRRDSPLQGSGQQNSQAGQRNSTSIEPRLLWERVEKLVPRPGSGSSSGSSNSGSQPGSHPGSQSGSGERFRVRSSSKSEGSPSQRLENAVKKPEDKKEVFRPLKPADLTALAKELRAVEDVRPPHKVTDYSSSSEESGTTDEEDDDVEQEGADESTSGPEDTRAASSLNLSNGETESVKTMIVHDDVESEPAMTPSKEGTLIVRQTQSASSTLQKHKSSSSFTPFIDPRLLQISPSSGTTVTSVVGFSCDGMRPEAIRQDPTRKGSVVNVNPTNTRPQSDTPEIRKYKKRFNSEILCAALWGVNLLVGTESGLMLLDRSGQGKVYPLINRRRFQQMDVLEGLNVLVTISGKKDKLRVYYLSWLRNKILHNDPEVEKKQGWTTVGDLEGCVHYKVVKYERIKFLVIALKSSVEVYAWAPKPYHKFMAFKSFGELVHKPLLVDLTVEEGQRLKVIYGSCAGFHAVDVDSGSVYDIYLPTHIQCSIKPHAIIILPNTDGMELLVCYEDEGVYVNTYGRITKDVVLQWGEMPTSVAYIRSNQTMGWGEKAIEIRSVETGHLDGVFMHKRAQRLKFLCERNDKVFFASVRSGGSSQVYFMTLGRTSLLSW
Procedure: as §1

[25] = target: kinases in BCWM.1 cells (Homo sapiens, UniProt P53350); test: as above; conditions: PLK1; Lys1; 1 μM, 90 min; no GF
Procedure: as §1

[26] = target: kinases in BCWM.1 cells (Homo sapiens, UniProt Q86UE8); test: as above; conditions: TLK2; Lys2; 1 μM, 90 min; no GF
Procedure: as §1

With C=CC(=O)N1CC[C@H](Nc2nccc(Nc3ncc(C(=O)Nc4c(C)cccc4C)s3)n2)C1 [Example I-3] the “% change of MS signal compared to control sample” value (from here on “% change of MS signal”) [1] was 85.9%, the “% change of MS signal” value [2] was 40.2% and the “% change of MS signal” value [3] was −5.5%. The “% change of MS signal” value ([4]; MST4, YSK1, Lys2) was 15.5%, the “% change of MS signal” value ([4]; NEK6, NEK7, Lys2) was −13.1% and the “% change of MS signal” value ([4]; PCTAIRE2, PCTAIRE3, Lys1) was −12%. For the same molecule, the “% change of MS signal” value ([4]; PI4KA, PI4KAP2, ATP) was 12%, the “% change of MS signal” value ([4]; PKACa, PKCb, Lys2) was 3.3% and the “% change of MS signal” value ([4]; ROCK1, ROCK2, Lys2) was 12.5%. The “% change of MS signal” value ([4]; RSK1 domain1, RSK2 domain1, RSK3 domain1, Lys2) was −7.3%, the “% change of MS signal” value ([4]; SRPK1, SRPK2, Lys1) was 22.3% and the “% change of MS signal” value ([4]; TAO1, TAO3, Lys2) was 14.3%. For the same molecule, the “% change of MS signal” value ([4]; Wnk1, Wnk2, Wnk3, Lys2) was −1.2%, the “% change of MS signal” value ([4]; Wnk1, Wnk2, ATP Loop) was 6.8% and the “% change of MS signal” value ([4]; ZC1/HGK, ZC2/TNIK, ZC3/MINK, Lys2) was −0.1%. For the same molecule, the “% change of MS signal” value ([4]; p38d, p38g, Lys2) was −0.7%, the “% change of MS signal” value [5] was −4.6% and the “% change of MS signal” value [6] was 21.2%. The “% change of MS signal” value [7] was 11.8%, the “% change of MS signal” value [8] was 66.2% and the “% change of MS signal” value [9] was −14.1%. The “% change of MS signal” value [10] was −3.4%, the “% change of MS signal” value [11] was −10.1% and the “% change of MS signal” value [12] was −32.7%. The “% change of MS signal” value [13] was 2.3%, the “% change of MS signal” value [14] was 7.6% and the “% change of MS signal” value [15] was −0.4%. For the same molecule, the “% change of MS signal” value [16] was 5.9%, the “% change of MS signal” value [17] was 1% and the “% change of MS signal” value [18] was −18.8%. For the same molecule, the “% change of MS signal” value [19] was 1.6%, the “% change of MS signal” value [20] was −0.7% and the “% change of MS signal” value [21] was 5.5%. For the same molecule, the “% change of MS signal” value [22] was 10.1%, the “% change of MS signal” value [23] was −1.2% and the “% change of MS signal” value [24] was −14.8%. The “% change of MS signal” value [25] was 0.2% and the “% change of MS signal” value [26] was −3%.
